Series [1] is described as follows: renal elimination after incorporation (animal experimental data). It is filed as in vivo. The source says: To date one accidental Rhenium-188 incorporation caused by balloon rupture has been reported. The measured total body dose of the treated patient was 113 mGy (image-based analysis) and 88 mGy (biological analysis), respectively. Thus, the measured radiation exposures were within the theoretical calculated ranges. [Paeng J. C., Lee D. S., Kang W. J., Yang H. M., Chung J. K., Jeong J. M., Chae I. H., Lee M. M., Lee M. C. “Dosimetry in leakage of (188)Re-DTPA during intracoronary balloon brachytherapy” Eur. J. Nucl. Med. Mol. Imaging. 2003; 30(9): 1263-1265]. […] Therefore, Rhenium-188 will remain in the body for about 2 days after incorporation. In the body Rhenium-188 is mainly absorbed by the thyroid (0.0167 mGy/MBq) and the stomach (0.013 mGy/MBq) [Knapp F. F., Jr., Guhlke S., Beets A. L., Lin W. Y., Stabin M., Amols H., Weinberger J. “Endovascular beta irradiation for prevention of restenosis using solution radioisotopes: pharmacologic and dosimetric properties of rhenium-188 compounds.” Cardiovasc. Radiat. Med. 1999; 1(1): 86-97; Lin W. Y., Tsai S. C., Hsieh B. T. Lee T. W., Ting G., Wang S. J “Evaluation of three rhenium-188 candidates for intravascular radiation therapy with liquid-filled balloons to prevent restenosis” J. Nucl. Cardiol. 2000; 7(1): 37-42]. […]

For series [2] the following is noted: patient after balloon rupture, cited from earlier work.
For series [3] the following is noted: renal elimination after incorporation; animal experimental data; cited from earlier work.
The conditions of series [4]: cited from earlier work.
The conditions of series [5]: subsequent oral administration of perchlorate after Rhenium-188 incorporation; cited from earlier work.
For series [6] the following is noted: complete accidental incorporation of a balloon filling of about 3 ml; cited from earlier work.

Read-outs that look alike come from different tables or passages of the source.

In the case of `[188Re]` [Rhenium-188], the “time remaining in the body after incorporation” value in series [1] is on record as “about 2 days”. Also, the “measured total body dose” value is 88 mGy in series [2] (biological analysis) and 113 mGy in series [2] (image-based analysis). The elimination half-life result in series [3] is given as “about 7 h”. The absorbed dose in series [4] (stomach) was 0.013 mGy/MBq; in series [4] (thyroid), 0.0167 mGy/MBq.

`[O-][Cl+3]([O-])([O-])O` [perchlorate]: in series [5], the “whole-body radiation reduced to” value is listed as 38%.

On to Rhenium-188-DPTA, for which, in series [6], the “theoretical calculated total body dose” value was “approximately 63 mGy”.

The values above are taken from patent publication US20090216187A1, “Method of Treatment of Vascular Diseases” (priority 2008, published 2009).
